For the data set the following is noted: Crystal; DTA.

Structures are written as SMILES. Numbers after ± are expanded uncertainties.

`COc1ccc([N+](=O)[O-])c(-n2ccnn2)c1[N+](=O)[O-]` [1-(3-methoxy-2,6-dinitrophenyl)-1H-1,2,3-triazole]: the Normal melting temperature came out at 168.96 ± 3 °C.

`COc1c([N+](=O)[O-])cc(Cn2ccnn2)cc1[N+](=O)[O-]` [1-(4-methoxy-3,5-dinitrobenzyl)-1H-1,2,3-triazole]: the Normal melting temperature was found to be 90.13 ± 3 °C.

(Values after the NIST ThermoML archive (doi:10.1016/j.tca.2015.06.020).)
